Results as given in ChEMBL document CHEMBL1201862, “PubChem BioAssay data set” (2004).
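Five compound concentrations were applied to cells in 96-well plates for 48 hours; endpoints were derived by simple linear interpolation of the resulting dose-response curve. GI50 marks 50% less growth.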 The source made the active and inactive calls. Cut-off read from the data, not from the text of the source: active = GI50 up to about 1.1 µM and inactive = higher.

Key:
Assay in all cases: inhibition of tumour cell growth, NCI panel, 48 h
[1] = test system: EKVX
[2] = test system: HOP-92
[3] = test system: Hs-578T
[4] = test system: SF-268
[5] = test system: NCI-H226
[6] = test system: SK-MEL-28
[7] = test system: OVCAR-4
[8] = test system: OVCAR-8
[9] = test system: SK-MEL-2
[10] = test system: M14
[11] = test system: MOLT-4
[12] = test system: MDA-MB-435
[13] = test system: A498
[14] = test system: CAKI-1
[15] = test system: SF-295
[16] = test system: SNB-19
[17] = test system: IGROV-1
[18] = test system: MDA-MB-231
[19] = test system: SF-539
[20] = test system: TK-10
[21] = test system: MDA-N
[22] = test system: RXF 393
[23] = test system: SN12C
[24] = test system: UACC-257
[25] = test system: Malme-3M
[26] = test system: SK-MEL-5
[27] = test system: K562
[28] = test system: PC-3
[29] = test system: CCRF-CEM
[30] = test system: DU-145
[31] = test system: SW-620
[32] = test system: ACHN
[33] = test system: HCT-116
[34] = test system: UACC-62
[35] = test system: COLO 205
[36] = test system: U-251
[37] = test system: UO-31
[38] = test system: MCF7
[39] = test system: HT-29
[40] = test system: KM12
[41] = test system: NCI-H460
[42] = test system: SK-OV-3
[43] = test system: NCI-H23
[44] = test system: RPMI-8226
[45] = test system: 786-0
[46] = test system: LOX IMVI
[47] = test system: HCC 2998
[48] = test system: BT-549
[49] = test system: NCI/ADR-RES
[50] = test system: HL-60
[51] = test system: NCI-H522
[52] = test system: OVCAR-3
[53] = test system: T47D
[54] = test system: A549
[55] = test system: HCT-15
[56] = test system: OVCAR-5
[57] = test system: HOP-62

Cc1nnc2n1N=C(c1cc(F)c(Cl)cc1Cl)/C(=C/c1ccc(Cl)cc1)S2
GI50 [1]: 9.42 µM (inactive)
GI50 [2]: 19.6 µM (inactive)
GI50 [3]: 43.1 µM (inactive)
GI50 [4]: 41.8 µM (inactive)
GI50 [5]: 23.2 µM (inactive)
GI50 [6]: 38.8 µM (inactive)
GI50 [7]: 13.7 µM (inactive)
GI50 [8]: 16.1 µM (inactive)
GI50 [9]: 8.15 µM (inactive)
GI50 [10]: 17.9 µM (inactive)
GI50 [11]: 9.91 µM (inactive)
GI50 [12]: 13.6 µM (inactive)
GI50 [13]: 19.1 µM (inactive)
GI50 [14]: 10.1 µM (inactive)
GI50 [15]: 13.4 µM (inactive)
GI50 [16]: 23.7 µM (inactive)
GI50 [17]: 19.6 µM (inactive)
GI50 [18]: 15.8 µM (inactive)
GI50 [19]: 25.9 µM (inactive)
GI50 [20]: 28.7 µM (inactive)
GI50 [21]: 15.8 µM (inactive)
GI50 [22]: 17.2 µM (inactive)
GI50 [23]: 14.9 µM (inactive)
GI50 [24]: 17 µM (inactive)
GI50 [25]: 20.6 µM (inactive)
GI50 [26]: 19.2 µM (inactive)
GI50 [27]: 17.5 µM (inactive)
GI50 [28]: 20.6 µM (inactive)
GI50 [29]: 19.1 µM (inactive)
GI50 [30]: 17.1 µM (inactive)
GI50 [31]: 37.7 µM (inactive)
GI50 [32]: 16.5 µM (inactive)
GI50 [33]: 7 µM (inactive)
GI50 [34]: 15 µM (inactive)
GI50 [35]: 33.4 µM (inactive)
GI50 [36]: 17 µM (inactive)
GI50 [37]: 11.3 µM (inactive)
GI50 [38]: 14.4 µM (inactive)
GI50 [39]: 11.7 µM (inactive)
GI50 [40]: 12.8 µM (inactive)
GI50 [41]: 13.9 µM (inactive)
GI50 [42]: 43.4 µM (inactive)
GI50 [43]: 14.5 µM (inactive)
GI50 [44]: 15.5 µM (inactive)
GI50 [45]: 16.8 µM (inactive)
GI50 [46]: 9.33 µM (inactive)
GI50 [47]: 13.4 µM (inactive)
GI50 [48]: 18.7 µM (inactive)
GI50 [49]: 11.8 µM (inactive)
GI50 [50]: 26.4 µM (inactive)
GI50 [51]: 20.7 µM (inactive)
GI50 [52]: 12.7 µM (inactive)
GI50 [53]: 34 µM (inactive)
GI50 [54]: 18 µM (inactive)
GI50 [55]: 13.8 µM
GI50 [56]: 6.46 µM (inactive)
GI50 [57]: 15.7 µM (inactive)
